Results from patent US10766888B1, “HMOX1 inducers” (Mitobridge Inc., priority 2019, dated 2020).
≈ marks a conversion by molar mass, not a printed value.

Legend:
[1] = test system: Human Heme Oxygenase-1 (HMOX-1); test: ELISA assay to measure human heme oxygenase-1 (HMOX-1) in HepG2 lysate; assay type: cell-based; conditions: for EC50: human HMOX1 protein level in HepG2 lysate, * = average of 2 or more EC50 determinations, NA = Not Active, read-out: EC50
Protocol: Example 143. ELISA Assay to Measure Human Heme Oxygenase-1 (HMOX-1) in HepG2 lysate
Reagents and Technical Notes:
ELISA capture antibody, standard HO-1, detection antibody and streptavidin HRP were supplied in the DuoSet IC Human total HO-1 ELISA from R&D systems (DYC3776-2). The substrate cocktail was KPL LumiGLO reserve Chemiluminescent Substrate (54-71-00). PBS was Corning Cellgro Cell Culture (21-040-CV). 10×PBS+0.05% tween20 (PBST) was from KPL.
All incubations of the plate were at room temperature (20° C.) in a closed drawer.
The ELISA plate was processed manually. All loadings were with a multichannel pipet. Plates were emptied by shaking into the sink and tapping onto paper towels to remove any remaining reagent. Plate washing was accomplished by loading all wells with PBS+0.05% tween20 (PBST) using a squirt bottle, shaking the PBST out and tapping the plate onto paper towels.
Preparation of the ELISA Plate:
• 1. anti-HO-1 capture antibody was 1440 μg/ml after reconstitution in PBS. This antibody was diluted to 8 μg/ml in PBS and 50 μl per well was added to a 384 well greiner “lumitrac 200” plate. Incubated overnight. • 2. The plate was emptied and 100 μl PBS+1% BSA added to all wells. Incubated 90 minutes at room temperature. Preparation of HepG2 Lysate: • 1. Cells were cultured in a 96-well tissue culture plate washed with PBS and then the plate frozen at −70° C. overnight. Plates were allowed to warm to ice temperature in an ice bucket. 20 μl of PBS, 0.5% Triton X100, 1 mM EDTA with 1×HALT™ protease inhibitors was added to each well and the plates incubated on ice for 1 hour. • 2. The lysates were frozen at −20° C. overnight. Measurement of HMOX1 (“HO-1”) • 1. In a polypropylene 384 well plate, human HO-1 (after reconstitution in PBS+0.5% Triton+1 mM EDTA) was serially diluted from 20 ng/ml 2-fold in PBS+0.5% triton-X100, 1 mM EDTA to make a 12-point standard curve including a zero point. • 2. In a polypropylene 96 well plate, HepG2 lysate was diluted 1 to 20 in Diluent #4 from DUOSET kit in which the assay standard is also diluted. • 3. The PBS+1% BSA was emptied from the ELISA plate and 30 μl of all samples and standards were added (duplicates recommended). The plate was incubated 90 minutes. • 4. Emptied plate and washed 4 times with PBST. • 5. Diluted HO-1 detection antibody to 200 ng/ml in PBS+1% BSA and added 30 μl to all wells. Incubated 90 minutes. • 6. Emptied plate and washed 4 times with PBST. • 7. Added 30 μl streptavidin HRP at 1/200 in PBS+1% BSA (stock streptavidin concentration not specified) to all wells. Incubated 30 minutes. • 8. Emptied plate and washed 4 times with PBST. • 9. Diluted Lumiglo reserve reagent two parts buffer to one part lumiglo substrate. Added 30 μl to all wells. Incubated 5 minutes. • 10. Measured chemiluminescence on spectramax M5 using 150 ms integration.
Table 1 below lists EC50 and fold changes of human HMOX1 protein levels relative to DMSO control upon treatment with representative compounds.

[2] = Kinetic solubility; assay type: physicochemical; conditions: Dulbecco's phosphate buffer saline (DPBS), aqueous buffer, kinetic from dmso stock, DPBS pH 7.4, 25° C., 200 μM test compound
Protocol: Example 144. Kinetic Solubility
10 μL of 10 mM DMSO stock solution were aliquotted to 490 μL of DMSO solution and separately 490 μL of Dulbecco's phosphate buffer saline, DPBS, pH 7.4 solution in 1.2 mL 96-well plates in duplicate. Final concentration was 200 μM of the test compound. Samples were incubated at 25° C. with shaking at 200 rpm for 16 h. Samples were centrifuged at 3500 rpm for 20 min at 25° C., and supernatant was submitted for HPLC analysis.
Kinetic solubility was measured using the following equation: […]

| Compound | EC50 [1] [nM] | solubility at 16 h [2] [µM] | Maximum Fold induction ([1]; fold change of human HMOX1 protein level relative to DMSO control, HepG2) [fold] |
| --- | --- | --- | --- |
| Cn1c(Nc2nc3ccc(C(F)(F)F)cc3o2)nc2cc(C(=O)NCCN3CCCC3)ccc21 [Example 36, 1-methyl-N-(2-(pyrrolidin-1-yl)ethyl)-2-((6-(trifluoromethyl)benzo[d]oxazol-2-yl)amino)-1H-benzo[d]imidazole-5-carboxamide] | 1300 | 2.8 (≈ 1.32 µg/mL) | – |
| CC(O)COCCNC(=O)c1ccc2c(c1)nc(Nc1nc3ccc(C(F)(F)F)cc3o1)n2C (stereo not shown) [Example 38, N-(2-(2-hydroxypropoxy)ethyl)-1-methyl-2-((6-(trifluoromethyl)benzo[d]oxazol-2-yl)amino)-1H-benzo[d]imidazole-5-carboxamide] | 1300 | < 2 | – |
| Cn1c(Nc2nc3ccc(C(F)(F)F)cc3o2)nc2cc(C(=O)NCC(O)CO)ccc21 (stereo not shown) [Example 39, N-(2,3-dihydroxypropyl)-1-methyl-2-((6-(trifluoromethyl)benzo[d]oxazol-2-yl)amino)-1H-benzo[d]imidazole-5-carboxamide] | 950 | 2.1 (≈ 0.944 µg/mL) | – |
| CN(C)CC(=O)NCCNC(=O)c1ccc2c(c1)nc(Nc1nc3ccc(C(F)(F)F)cc3o1)n2C [Example 40, N-(2-(2-(dimethylamino)acetamido)ethyl)-1-methyl-2-((6-(trifluoromethyl)benzo[d]oxazol-2-yl)amino)-1H-benzo[d]imidazole-5-carboxamide] | 690 | 0.5 (≈ 0.252 µg/mL) | – |
| Cn1c(Nc2nc3ccc(C(F)(F)F)cc3o2)nc2cc(C(=O)NCCOCC(=O)O)ccc21 [Example 41, 2-(2-(1-methyl-2-((6-(trifluoromethyl)benzo[d]oxazol-2-yl)amino)-1H-benzo[d]imidazole-5-carboxamido)ethoxy)acetic acid] | 4800 | 13.8 (≈ 6.59 µg/mL) | – |
| Cn1c(Nc2nc3ccc(C(F)(F)F)cc3o2)nc2cc(C(=O)NCCOCC(C)(C)O)ccc21 [Example 42, N-(2-(2-hydroxy-2-methylpropoxy)ethyl)-1-methyl-2-((6-(trifluoromethyl)benzo[d]oxazol-2-yl)amino)-1H-benzo[d]imidazole-5-carboxamide] | 2300 | 3.6 (≈ 1.77 µg/mL) | 29 |
| Cn1c(Nc2nc3cc(C(F)(F)F)ccc3o2)nc2cc(C(=O)NCCOCCO)ccc21 [Example 43, N-(2-(2-hydroxyethoxy)ethyl)-1-methyl-2-((5-(trifluoromethyl)benzo[d]oxazol-2-yl)amino)-1H-benzo[d]imidazole-5-carboxamide] | 1300 | 8 (≈ 3.71 µg/mL) | – |
| COCCNC(=O)c1ccc2c(c1)nc(Nc1nc3ccc(OC(F)(F)F)cc3o1)n2C [Example 45, N-(2-methoxyethyl)-1-methyl-2-((6-(trifluoromethoxy)benzo[d]oxazol-2-yl)amino)-1H-benzo[d]imidazole-5-carboxamide] | 640 | 0.2 (≈ 0.0899 µg/mL) | – |
| Cn1c(Nc2nc3ccc(OC(F)(F)F)cc3o2)nc2cc(C(=O)Nc3cn[nH]c3)ccc21 [Example 46, 1-methyl-N-(1H-pyrazol-4-yl)-2-((6-(trifluoromethoxy)benzo[d]oxazol-2-yl)amino)-1H-benzo[d]imidazole-5-carboxamide] | 2200 | < 5 | – |
| Cn1c(Nc2nc3ccc(OC(F)(F)F)cc3o2)nc2cc(C(=O)NC(CO)(CO)CO)ccc21 [Example 47, N-(1,3-dihydroxy-2-(hydroxymethyl)propan-2-yl)-1-methyl-2-((6-(trifluoromethoxy)benzo[d]oxazol-2-yl)amino)-1H-benzo[d]imidazole-5-carboxamide] | 1600 | < 2 | – |
| Cn1c(Nc2nc3ccc(OC(F)(F)F)cc3o2)nc2cc(C(=O)NC(CO)CO)ccc21 [Example 48, N-(1,3-dihydroxypropan-2-yl)-1-methyl-2-((6-(trifluoromethoxy)benzo[d]oxazol-2-yl)amino)-1H-benzo[d]imidazole-5-carboxamide] | 2000 | 3.9 (≈ 1.82 µg/mL) | – |
| CN(C)CC(=O)NCCNC(=O)c1ccc2c(c1)nc(Nc1nc3ccc(OC(F)(F)F)cc3o1)n2C [Example 49, N-(2-(2-(dimethylamino)acetamido)ethyl)-1-methyl-2-((6-(trifluoromethoxy)benzo[d]oxazol-2-yl)amino)-1H-benzo[d]imidazole-5-carboxamide] | 800 | < 2 | – |
| Cn1c(Nc2nc3ccc(OC(F)(F)F)cc3o2)nc2cc(C(=O)NC3COC3)ccc21 [Example 51, 1-methyl-N-(oxetan-3-yl)-2-((6-(trifluoromethoxy)benzo[d]oxazol-2-yl)amino)-1H-benzo[d]imidazole-5-carboxamide] | 1400 | < 2 | – |
| Cn1c(Nc2nc3ccc(OC(F)(F)F)cc3o2)nc2cc(C(=O)NCC3(O)COC3)ccc21 [Example 52, N-((3-hydroxyoxetan-3-yl)methyl)-1-methyl-2-((6-(trifluoromethoxy)benzo[d]oxazol-2-yl)amino)-1H-benzo[d]imidazole-5-carboxamide] | 1000 | < 2 | – |
| COCCNC(=O)c1ccc2c(c1)nc(Nc1nc3ccc(C(C)C)cc3o1)n2C [Example 60, 2-((6-isopropylbenzo[d]oxazol-2-yl)amino)-N-(2-methoxyethyl)-1-methyl-1H-benzo[d]imidazole-5-carboxamide] | 700 | 0.9 (≈ 0.367 µg/mL) | – |
| CC(C)c1ccc2nc(Nc3nc4cc(C(=O)NCCO)ccc4n3C)oc2c1 [Example 61, N-(2-hydroxyethyl)-2-((6-isopropylbenzo[d]oxazol-2-yl)amino)-1-methyl-1H-benzo[d]imidazole-5-carboxamide] | 1500 | 1.2 (≈ 0.472 µg/mL) | – |
| COCCNC(=O)c1ccc2c(c1)nc(Nc1nc3ccc(OC(F)F)cc3o1)n2C [Example 63, 2-((6-(difluoromethoxy)benzo[d]oxazol-2-yl)amino)-N-(2-methoxyethyl)-1-methyl-1H-benzo[d]imidazole-5-carboxamide] | 1300 | 0.8 (≈ 0.345 µg/mL) | – |
| Cn1c(Nc2nc3ccc(OC(F)F)cc3o2)nc2cc(C(=O)NCCO)ccc21 [Example 64, 2-((6-(difluoromethoxy)benzo[d]oxazol-2-yl)amino)-N-(2-hydroxyethyl)-1-methyl-1H-benzo[d]imidazole-5-carboxamide] | 1800 | 2 (≈ 0.835 µg/mL) | – |
| COCCNC(=O)c1ccc2c(c1)nc(Nc1nc3cc(F)ccc3o1)n2C [Example 67, 2-((5-fluorobenzo[d]oxazol-2-yl)amino)-N-(2-methoxyethyl)-1-methyl-1H-benzo[d]imidazole-5-carboxamide] | 910 | < 5 | – |
| COCCNC(=O)c1cc2nc(Nc3nc4ccc(OC(F)(F)F)cc4o3)n(C)c2cc1F [Example 71, 6-fluoro-N-(2-methoxyethyl)-1-methyl-2-((6-(trifluoromethoxy)benzo[d]oxazol-2-yl)amino)-1H-benzo[d]imidazole-5-carboxamide] | 730 | 0.3 (≈ 0.14 µg/mL) | – |
| Cn1c(Nc2nc3ccccc3o2)nc2cc(C(=O)NCCOCCO)c(F)cc21 [Example 72, 2-(benzo[d]oxazol-2-ylamino)-6-fluoro-N-(2-(2-hydroxyethoxy)ethyl)-1-methyl-1H-benzo[d]imidazole-5-carboxamide] | 1100 | 2.7 (≈ 1.12 µg/mL) | – |
